Measurements reported in ChEMBL document CHEMBL1201862, “PubChem BioAssay data set” (2004).
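Dose response: 5 concentrations. Exposure: 48 h. Format: 96-well plates. Endpoint: linear interpolation; highest concentration if not reached. GI50 marks 50% less growth.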 The source made the active and inactive calls. Rule as the data show it: active = GI50 up to about 1.1 µM and inactive = higher.

Tests used:
Assay in all cases: growth of human tumour cells (NCI), 48 h
SN12C = system: SN12C
ACHN = system: ACHN
UO-31 = system: UO-31
SK-OV-3 = system: SK-OV-3
HCC 2998 = system: HCC 2998
NCI-H460 = system: NCI-H460
M14 = system: M14
Malme-3M = system: Malme-3M
OVCAR-4 = system: OVCAR-4
OVCAR-3 = system: OVCAR-3
HCT-116 = system: HCT-116
HCT-15 = system: HCT-15
SK-MEL-2 = system: SK-MEL-2
A549 = system: A549
OVCAR-8 = system: OVCAR-8
NCI-H522 = system: NCI-H522
MDA-MB-231 = system: MDA-MB-231
SK-MEL-5 = system: SK-MEL-5
SF-268 = system: SF-268
UACC-257 = system: UACC-257

Compound | GI50 (SN12C) | GI50 (ACHN) | GI50 (UO-31) | GI50 (SK-OV-3) | GI50 (HCC 2998) | GI50 (NCI-H460) | GI50 (M14) | GI50 (Malme-3M) | GI50 (OVCAR-4) | GI50 (OVCAR-3) | GI50 (HCT-116) | GI50 (HCT-15) | GI50 (SK-MEL-2) | GI50 (A549) | GI50 (OVCAR-8) | GI50 (NCI-H522) | GI50 (MDA-MB-231) | GI50 (SK-MEL-5) | GI50 (SF-268) | GI50 (UACC-257)
CCOC(=O)c1c(-c2ccccc2)oc(=O)c(Cc2cccc3cccnc23)c1-c1ccccc1 | > 10 µM (inactive) | > 10 µM (inactive) | > 10 µM (inactive) | > 10 µM (inactive) | > 10 µM (inactive) | > 10 µM (inactive) | > 10 µM (inactive) | > 10 µM (inactive) | > 10 µM (inactive) | > 10 µM (inactive) | > 10 µM (inactive) | > 10 µM | > 10 µM (inactive) | > 10 µM (inactive) | > 10 µM (inactive) | > 10 µM (inactive) | > 10 µM (inactive) | > 10 µM (inactive) | > 10 µM (inactive) | > 10 µM (inactive)
CC1(C)CC(=O)c2c(nc3c4c([nH]c(-c5ccc(Br)cc5)c24)CC(C)(C)C3)C1 | 98.6 µM (inactive) | 42.7 µM (inactive) | 45.1 µM (inactive) | > 100 µM (inactive) | 19.2 µM (inactive) | 37.8 µM (inactive) | 36.6 µM (inactive) | 49.1 µM (inactive) | 30.7 µM (inactive) | 27.1 µM (inactive) | 36.3 µM (inactive) | 31.3 µM | 36.6 µM (inactive) | 29.6 µM (inactive) | 49.8 µM (inactive) | 23.6 µM (inactive) | 44 µM (inactive) | 26.8 µM (inactive) | 55.6 µM (inactive) | 66.7 µM (inactive)
COc1cc(CC(C)C(C)Cc2ccc(O)c(OC)c2)ccc1O (stereo not given) [DIHYDROGUAIARETIC ACID] | 15.4 µM (inactive) | 13.1 µM (inactive) | 12.7 µM (inactive) | 20.9 µM (inactive) | 18.5 µM (inactive) | 14.5 µM (inactive) | 14.1 µM (inactive) | 13.1 µM (inactive) | 20.1 µM (inactive) | 16 µM (inactive) | 17.4 µM (inactive) | 20 µM | 9.68 µM (inactive) | 14.5 µM (inactive) | 15.6 µM (inactive) | 9.86 µM (inactive) | 10.1 µM (inactive) | 8.55 µM (inactive) | 15.7 µM (inactive) | 15.8 µM (inactive)
COC(=O)C1(Cc2ccccc2C)Cc2ccc(C)cc2C1=O (stereo not given) | 21.6 µM (inactive) | 34.9 µM (inactive) | 36.6 µM (inactive) | 55.2 µM (inactive) | 48 µM (inactive) | 30.8 µM (inactive) | 37.2 µM (inactive) | 23.2 µM (inactive) | 36.6 µM (inactive) | 27.7 µM (inactive) | 27.2 µM (inactive) | 27.4 µM | 21.2 µM (inactive) | 33.2 µM (inactive) | 47.9 µM (inactive) | 17.3 µM (inactive) | 42.2 µM (inactive) | 16.9 µM (inactive) | 69.7 µM (inactive) | 29.4 µM (inactive)
COC(=O)[C@@H]1COC(=O)N1 | > 100 µM (inactive) | > 100 µM (inactive) | > 100 µM (inactive) | > 100 µM (inactive) | > 100 µM (inactive) | > 100 µM (inactive) | > 100 µM (inactive) | > 100 µM (inactive) | > 100 µM (inactive) | > 100 µM (inactive) | > 100 µM (inactive) | > 100 µM | > 100 µM (inactive) | > 100 µM (inactive) | > 100 µM (inactive) | > 100 µM (inactive) | > 100 µM (inactive) | > 100 µM (inactive) | > 100 µM (inactive) | > 100 µM (inactive)
C[C@H]1[C@H]2[C@H](C[C@@]3(C)C4=CC[C@H]5C(C)(C)[C@@H](OC6OCC(O)C(O)C6O)CC[C@@]56C[C@@]46CC[C@]23C)O[C@@]2(O)[C@@H]1OC(C)(C)[C@H]2O (stereo not given in full) | 1.06 µM (active) | 2.12 µM (inactive) | 3.57 µM (inactive) | 1.74 µM (inactive) | 0.681 µM (active) | 2.12 µM (inactive) | 3.83 µM (inactive) | 0.993 µM (active) | 1.92 µM (inactive) | 3.01 µM (inactive) | 1.45 µM (inactive) | 1.05 µM | 5.53 µM (inactive) | 1.4 µM (inactive) | 0.879 µM (active) | 0.605 µM (active) | 1.81 µM (inactive) | 1.66 µM (inactive) | 0.914 µM (active) | 1.6 µM (inactive)
CC1CNC(c2ccc(CN3CCC(CCCC4CCN(Cc5ccc(C6=NC(C)CN6)cc5)CC4)CC3)cc2)=N1 (stereo not given) | 84.7 µM (inactive) | > 100 µM (inactive) | > 100 µM (inactive) | 25.5 µM (inactive) | 14.8 µM (inactive) | 18.5 µM (inactive) | 62.5 µM (inactive) | > 100 µM (inactive) | 19.7 µM (inactive) | > 100 µM (inactive) | 29 µM (inactive) | > 100 µM | 21.7 µM (inactive) | 66.1 µM (inactive) | 71.3 µM (inactive) | 23.5 µM (inactive) | 21.2 µM (inactive) | > 100 µM (inactive) | > 100 µM (inactive) | 18.8 µM (inactive)
Cc1c2ncccc2c(C)c2c1[nH]c1ccc(O)cc12 | 2.24 µM (inactive) | 2.02 µM (inactive) | 3.35 µM (inactive) | 3.38 µM (inactive) | 6.3 µM (inactive) | 1.31 µM (inactive) | 4.89 µM (inactive) | 8.87 µM (inactive) | 4.15 µM (inactive) | 6.28 µM (inactive) | 4.59 µM (inactive) | 3.39 µM | 18.5 µM (inactive) | 2.56 µM (inactive) | 4.35 µM (inactive) | 6.22 µM (inactive) | 4.93 µM (inactive) | 7.24 µM (inactive) | 4.94 µM (inactive) | 11.5 µM (inactive)
